Values after ≈ are worked out from the molar mass of the structure shown.
These compounds were tested on Nucleic Acid (assay: Compound was evaluated for 50% inhibitory dose against oncornaviral DNA polymerase activity of moloney murine leukemia virus).
Format: functional

Row | Structure (SMILES) | ID50 [µg/mL]
1 | N=C(N)c1ccc(/N=N/Nc2ccc(C(=N)N)cc2)cc1 | 11 (≈ 39.1 µM)

These compounds were tested against Gag-Pol polyprotein (Moloney murine leukemia virus isolate Shinnick) (UniProt P03355).
Description: Inhibitory dose against oncornaviral DNA polymerase activity of moloney murine leukemia virus

Row | Structure (SMILES) | ID50 [µg/mL]
2 | N=C(N)c1ccc(-c2ccc(-c3ccc(C(=N)N)cc3)[nH]2)cc1 | 6.5 (≈ 21.4 µM)
3 | N=C(N)c1ccc(Oc2ccc(-c3cc4ccc(C(=N)N)cc4[nH]3)cc2)cc1 | 250 (≈ 677 µM)
4 | N=C(N)c1ccc(-c2cc3ccc(C(=N)N)cc3s2)cc1 | 4 (≈ 13.6 µM)
5 | c1cc(-c2cc3ccc(C4=NCCN4)cc3s2)ccc1C1=NCCN1 | 1.2 (≈ 3.46 µM)
6 | N=C(N)c1ccc2c(c1)[nH]c1c3cc(C(=N)N)ccc3sc21 | 1.2 (≈ 3.9 µM)
7 | N=C(N)c1ccc2[nH]c(-c3cc4cc(C(=N)N)ccc4o3)cc2c1 | 0.9 (≈ 2.84 µM)
8 | C(/C=C/c1cc2cc(C3=NCCN3)ccc2o1)=C\c1ccc(C2=NCCN2)cc1 | 4 (≈ 10.5 µM)
9 | N=C(N)c1ccc2oc(/C=C/C=C/c3cc4cc(C(=N)N)ccc4o3)cc2c1 | 3 (≈ 8.1 µM)
10 | N=C(N)c1cccc(-c2cc3cc(C(=N)N)ccc3s2)c1 | 6 (≈ 20.4 µM)
11 | N=C(N)c1ccc(OCCCCCOc2ccc(C(=N)N)cc2)cc1 | 100 (≈ 294 µM)
12 | N=C(N)Nc1ccc(-c2cc3cc(NC(=N)N)ccc3s2)cc1 | 11 (≈ 33.9 µM)
13 | C/C(=C\c1cc2cc(C(=N)N)ccc2o1)c1ccc(C(=N)N)cc1 | 4 (≈ 12.6 µM)
14 | N=C(N)c1cccc(-c2cc3cc(C(=N)N)ccc3[nH]2)c1 | 4 (≈ 14.4 µM)
15 | N=C(N)c1ccc(-c2c[nH]c(-c3ccc(C(=N)N)cc3)n2)cc1 | 10 (≈ 32.9 µM)
16 | N=C(N)c1ccc(/C=C/c2ccc(C(=N)N)cc2)cc1 | 12 (≈ 45.4 µM)
17 | N=C(N)c1ccc(/C=C/C=C/c2cc3cc(C(=N)N)ccc3o2)cc1 | 0.9 (≈ 2.72 µM)
18 | C(/C=C/c1cc2cc(C3=NCCN3)ccc2o1)=C\c1cc2cc(C3=NCCN3)ccc2o1 | 1 (≈ 2.37 µM)
19 | CCN(CC)CCOc1ccc2c(c1)C(=O)c1cc(OCCN(CC)CC)ccc1-2 | 75 (≈ 183 µM)
20 | N=C(N)c1ccc(-c2cc3cc(C(=N)N)ccc3s2)cc1 | 5 (≈ 17 µM)
21 | N=C(N)c1cccc(-c2cc3ccc(C(=N)N)cc3[nH]2)c1 | 8 (≈ 28.8 µM)
22 | c1cc(-c2cc3cc(C4=NCCN4)ccc3s2)ccc1C1=NCCN1 | 2.8 (≈ 8.08 µM)
23 | Cc1c(/C=C/c2oc3ccc(C(=N)N)cc3c2C)oc2ccc(C(=N)N)cc12 | 8 (≈ 21.5 µM)
24 | N=C(N)c1ccc2oc(/C=C/c3cc4ccc(C(=N)N)cc4o3)cc2c1 | 1.2 (≈ 3.48 µM)

Row | Structure (SMILES) | ID50 [µg/mL]
25 | N=C(N)c1ccc2oc(C(=O)Nc3ccc(C4=NCCN4)cc3)cc2c1 | 10 (≈ 28.8 µM)
26 | N=C(N)c1ccc(/C=C/c2cc3cc(C(=N)N)ccc3o2)cc1 | 8 (≈ 26.3 µM)
27 | N=C(N)c1ccc(-c2nnc(-c3ccc(C(=N)N)cc3)o2)cc1 | 28 (≈ 91.4 µM)
28 | N=C(N)c1ccc2[nH]c(/C=C/c3cc4cc(C(=N)N)ccc4o3)cc2c1 | 1.4 (≈ 4.08 µM)
29 | N=C(N)c1ccc(-c2[nH]c3cc(C(=N)N)ccc3c2N)cc1 | 12 (≈ 41 µM)
30 | N=C(N)Nc1ccc(-c2cc3ccc(NC(=N)N)cc3s2)cc1 | 6 (≈ 18.5 µM)
31 | N=C(N)c1cccc(Oc2ccc(-c3cc4ccc(C(=N)N)cc4[nH]3)cc2)c1 | 6 (≈ 16.2 µM)
32 | N=C(N)Nc1ccc(-c2cc3cc(NC(=N)N)ccc3o2)cc1 | 8 (≈ 25.9 µM)
33 | N=C(N)c1ccc(C2Cc3cc(C(=N)N)ccc3S2(=O)=O)cc1 (centres undefined) | 90 (≈ 274 µM)
34 | C(=C\c1cc2ccc(C3=NCCN3)cc2[nH]1)/c1ccc(Oc2ccc(C3=NCCN3)cc2)cc1 | 1.6 (≈ 3.58 µM)
35 | C/C(=C\c1cc2cc(C(=N)N)ccc2o1)c1cc2cc(C(=N)N)ccc2o1 | 14 (≈ 39.1 µM)
36 | N=C(N)c1ccc2oc(CCc3cc4cc(C(=N)N)ccc4o3)cc2c1 | 12 (≈ 34.6 µM)
37 | N=C(N)c1ccc2oc(-c3c[nH]c(-c4cc5cc(C(=N)N)ccc5o4)n3)cc2c1 | 2 (≈ 5.2 µM)
38 | N=C(N)c1ccc(/C=C/c2cc3ccc(C(=N)N)cc3[nH]2)cc1 | 6 (≈ 19.8 µM)
39 | N=C(N)c1ccc(N/N=C/c2cc3cc(C(=N)N)ccc3o2)cc1 | 7.5 (≈ 23.4 µM)
40 | N=C(N)c1ccc(-c2ccc(-c3ccc(C(=N)N)cc3)o2)cc1 | 6 (≈ 19.7 µM)
41 | c1cc(Oc2ccc(-c3cc4ccc(C5=NCCN5)cc4[nH]3)cc2)cc(C2=NCCN2)c1 | 3 (≈ 7.12 µM)
42 | c1cc(C2=NCCN2)ccc1Oc1ccc(-c2cc3ccc(C4=NCCN4)cc3[nH]2)cc1 | 1.4 (≈ 3.32 µM)
43 | N=C(N)c1ccc(N/N=N/c2ccc(-c3cc4cc(C(=N)N)ccc4o3)cc2)cc1 | 1.3 (≈ 3.27 µM)
44 | N=C(N)c1cccc(-c2cc3ccc(C(=N)N)cc3s2)c1 | 8 (≈ 27.2 µM)
45 | N=C(N)N/N=C/c1ccc2cc(-c3ccc(/C=N/N=C(N)N)cc3)sc2c1 | 2 (≈ 5.28 µM)
46 | N=C(N)c1ccc2oc(/C=C/C=C/C=C/c3cc4cc(C(=N)N)ccc4o3)cc2c1 | 1.6 (≈ 4.04 µM)
47 | O=C(Nc1ccc(C2=NCCN2)cc1)c1ccc(C(=O)Nc2ccc(C3=NCCN3)cc2)cc1 | 200 (≈ 442 µM)

Row | Structure (SMILES) | ID50 [µg/mL]
48 | N=C(N)c1ccc2oc(/C=C/c3cc4ccc(C(=N)N)cc4[nH]3)cc2c1 | 1.1 (≈ 3.2 µM)
49 | N=C(N)c1ccc(Oc2ccc(/C=C/c3cc4ccc(C(=N)N)cc4[nH]3)cc2)cc1 | 1.4 (≈ 3.54 µM)
50 | CC[n+]1c(-c2ccccc2)c2cc(N)ccc2c2ccc(N)cc21 | 1.2
51 | N=C(N)c1ccc(-c2cc3ccc(C(=N)N)cc3[nH]2)cc1 | 5 (≈ 18 µM)
52 | N=C(N)c1ccc(CCc2cc3cc(C(=N)N)ccc3o2)cc1 | 120 (≈ 392 µM)
53 | C(=C\c1cc2cc(C3=NCCN3)ccc2o1)/c1ccc(Oc2ccc(C3=NCCN3)cc2)cc1 | 9 (≈ 20.1 µM)
54 | N=C(N)c1ccc(NC(=O)c2cc3cc(C(=N)N)ccc3o2)cc1 | 7.5 (≈ 23.3 µM)
55 | N=C(N)c1ccc2[nH]c(/C=C/c3nc4cc(C(=N)N)ccc4[nH]3)nc2c1 | 100 (≈ 290 µM)
56 | c1cc(-c2cc3ccc(C4=NCCN4)cc3[nH]2)ccc1C1=NCCN1 | 6 (≈ 18.2 µM)
57 | N=C(N)c1ccc(-c2ccc(-c3ccc(C(=N)N)cc3)s2)cc1 | 1.2 (≈ 3.75 µM)
58 | CC(Cc1cc2cc(C(=N)N)ccc2o1)c1cc2cc(C(=N)N)ccc2o1 (centres undefined) | 15 (≈ 41.6 µM)
59 | N=C(N)c1ccc2cc(C(=N)N)[nH]c2c1 | 70 (≈ 348 µM)
60 | N=C(N)c1ccc(-c2sc3ccc(C(=N)N)cc3c2N)cc1 | 8 (≈ 25.9 µM)
61 | CN(C)/C=N/c1ccc(-c2cc3cc(/N=C/N(C)C)ccc3o2)cc1 | 40 (≈ 120 µM)
62 | C(=C\c1cc2cc(C3=NCCN3)ccc2o1)/c1cc2cc(C3=NCCN3)ccc2o1 | 1.1 (≈ 2.77 µM)
63 | N=C(N)c1ccc2cc(/C=C/c3cc4ccc(C(=N)N)cc4o3)oc2c1 | 1.6 (≈ 4.65 µM)
64 | C(=C\c1cc2cc(C3=NCCN3)ccc2o1)/c1ccc(C2=NCCN2)cc1 | 6 (≈ 16.8 µM)
65 | N=C(N)c1ccc2oc(-c3ccc(N)cc3)cc2c1 | 270 (≈ 1070 µM)
66 | N=C(N)c1ccc(/C=C/C=C/C=C/c2cc3cc(C(=N)N)ccc3o2)cc1 | 1.6 (≈ 4.49 µM)
67 | N=C(N)c1ccc(Oc2ccc(/C=C/c3cc4cc(C(=N)N)ccc4o3)cc2)cc1 | 14 (≈ 35.3 µM)
68 | N=C(N)c1ccc2oc(/C=C/c3cc4cc(C(=N)N)ccc4s3)cc2c1 | 4 (≈ 11.1 µM)
69 | N=C(N)c1ccc2sc(/C=C/c3cc4cc(C(=N)N)ccc4s3)cc2c1 | 11 (≈ 29.2 µM)

Reference: ChEMBL document CHEMBL1121476, “Diaryl amidine derivatives as oncornaviral DNA polymerase inhibitors” (J Med Chem, 1980)
